Patent US20260258084A1, “New Peptides as Selective IL-23 Receptor Antagonists” (Sanofi, priority 2022, published 2026)
Values after ≈ are worked out from the molar mass of the structure shown. Where two headings read alike, the source gives them in different places. Starred links: 1 amine or outer side, 2 acyl side, 3 side chain; linkers in the order of their positions; H or OH if unused. Positions of bridges follow the written chain, without caps; N, C: chain ends. Non-standard residues stand in square brackets, D forms with d. Residues, ends and D or L forms follow the SMILES beside them. *: point of attachment. X6 = O=C(CCC(=O)[*:3])N[C@@H](CS[*:2])C(=O)[*:1]; X7 = O=C(CCC(=O)[*:3])N[C@@H](CC[*:2])C(=O)[*:1]; Trp(7-Me) = Cc1cccc2c(C[C@H](N)C(=O)O)c[nH]c12; αMeLys(Me2) = CN(C)CCCC[C@](C)(N)C(=O)O; 2Nal = N[C@@H](Cc1ccc2ccccc2c1)C(=O)O; d2Nal = N[C@H](Cc1ccc2ccccc2c1)C(=O)O; Palmitoyl = CCCCCCCCCCCCCCCC(=O)*; 3Pal = N[C@@H](Cc1cccnc1)C(=O)O; αMeL = CC(C)C[C@](C)(N)C(=O)O; Pen = CC(C)(S)[C@H](N)C(=O)O; Suc = O=C(CCC(=O)[*:2])[*:1]; αMeK = C[C@](N)(CCCCN)C(=O)O; Thp = NC1(C(=O)O)CCOCC1; Me2NCH2CH2 = CN(C)CC*; Aib = CC(C)(N)C(=O)O; Ahx = NCCCCCC(=O)O; Ava = NCCCCC(=O)O; Sar = CNCC(=O)O

Tests used:
[1] = target: T1, human interleukin-23 receptor (recombinant human IL-23R-Fc chimera) (Homo sapiens, UniProt Q5VWK5); assay: Human ELISA IL23/IL23R (assay for specific human IL23R antagonists); assay type: binding
T1 construct: Fc (IgG Fc fusion)
Method: Antagonism of compounds for human interleukin-23 receptor antagonists, was determined by an ELISA assay.
A 384-well plate was coated with 50 μl/well of human IL23 at a final concentration of […] and incubated overnight at 4° C. The wells were washed 3 times with 80 μl wash buffer and blocked with 80 μl blocking buffer for 60 minutes at room temperature and washed again. 20 μl of serially diluted test peptides was added to each well and subsequently 20 μl of recombinant human IL-23R-Fc chimera at final concentration of 0.1 μg/ml. The plate was incubated for 60 minutes at room temperature. After the wells were washed, bound IL23R-Fc was detected with goat anti-hu-IgG1-HRP antibody. Signals were visualized with QuantaBlu Fluorogenic Peroxidase Substrate.

[2] = system: IL-23 induced STAT3 signaling in HEK-Blue™ IL-23 cells; assay: IL-23 induced STAT3 signaling in HEK-Blue IL-23 cells (SEAP reporter); assay type: cell-based; settings: human IL23 0.25 ng/ml, read-out: pSTAT3
Source text: HEK-Blue™ IL-23 cells (Invivogen) are designed for the detection of bioactive human (hIL-23) and murine IL-23 (mIL-23) by monitoring the activation of the STAT3 pathway. Binding of IL-23 to its receptor on the surface of HEK-Blue™ IL-23 cells triggers a signalling cascade leading to the activation of STAT3 and the subsequent production of secreted embryonic alkaline phosphatase (SEAP). This can be readily assessed using QUANTI-Blue™ Solution, a SEAP detection reagent.
HEK-Blue™ IL-23 cells were cultured as described by Invivogen.
On the first day of assay 10 μL of the HEK-Blue IL23 cell suspension (final concentration: 10,000 cells/well) and 10 μl of serially diluted peptides solutions were dispensed into a 384-well assay plate. After pre-incubation of the reaction mixtures at 37° C./5% CO2/95% humidity for 60 minutes, 10 μl of the human IL23 cytokine (final concentration: 0.25 ng/ml) was added to each well for the STAT3 signalling activation. The plate was incubated overnight at 37° C./5% CO2/95% humidity.
On the second day 20 μl per well of Quanti-Blue detection solution (prepared according to the manufacture instruction) was dispensed into a new 384-well plate and followed by the transfer of 5 μl supernatant of the overnight incubated cell/sample mixtures. After incubation of 45 min at room temperature signals were measured with PHERAstar (BMG) at OD 620-655 nm. Dose response data were fitted with XLfit.

[3] = Chemical stability assessment of peptides (relative purity loss); assay type: physicochemical; settings: 24 hours at 37° C.
Method: Purity of a peptide batch was determined through UPLC/MS (Methods B-G) prior to chemical stability measurement. The target concentration was 1 mg/ml pure compound. Solutions from solid samples were prepared in the following buffer systems with a concentration of 1 mg/ml compound based on the previously determined % purity: • Solubility buffer system A) 50 mM HCl pH 1.2+Acetonitrile (1:1) • Solubility buffer system B) 50 mM phosphate buffer pH 6.5+Acetonitrile (1:1) • Solubility buffer system C) 50 mM phosphate buffer pH 7.4+Acetonitrile (1:1)
Prepared solutions were stored for 24 hours at 2° C. and 37° C. After this time course, the samples were centrifuged for 15 min at 2500 RCF to create a 1:5 dilution of the supernatant. Then 2 μl of the dilution were analysed with UHPLC-UV.
The chemical stability was rated through the relative loss of purity calculated by the equation:
[(purity after 0 hours at 37° C.)−(purity after 24 hours at 37° C.)]/(purity after 0 hours at 37° C.)]*100%
The purity is calculated as [(peak area peptide)/(total peak area)]*100%.

[4] = Solubility testing of peptides at different pH; assay type: physicochemical; settings: target concentration 1 mg/ml, 2 hours agitation
Method: Prior to the solubility measurement of a synthesized peptide batch, its purity was determined through UPLC/MS (methods B-G).
For solubility testing the target concentration was 1 mg pure compound/ml. Therefore, solutions from solid samples were prepared in a buffer system at a concentration of 1 mg/mL compound. The solid samples were obtained by drying down aliquots of a dimethyl sulfoxide stock solution using a Thermo Speedvac vacuum centrifuge. The dry down time was 3 hours. • Solubility buffer system A) 50 mM HCl pH 1.2 • Solubility buffer system B) 50 mM phosphate buffer pH 6.5 • Solubility buffer system C) 50 mM phosphate buffer pH 7.4 • Solubility buffer system D) 50 mM phosphate buffer pH 9.0
UPLC-UV (Method A) was performed after 2 hours of gentle agitation from the filtered (0.45 μm filter plates) solutions, which was obtained by 10 mins of centrifugation forced filtration at 1500 RCF (relative centrifugal acceleration).
The solubility was determined by the comparison of the UV peak area of 2 μL-injections of a buffered sample diluted 1:5 with a standard curve of a dimethyl sulfoxide reference sample of the diluted in dimethyl sulfoxide with known concentration. The different extinction coefficients were taken into account for the calculation.

[5] = Table 11, Pen peptide compounds, read-out: Elisa IC50 Pen
[6] = Table 10, read-out: Human ELISA IL23/IL23R IC50

Structure (SMILES)	IC50 [1, 5] [nM]	IC50 [2] [nM]	IC50 [1, 6] [nM]	further results
COc1ccc(C[C@@H]2NC(=O)[C@@H]3CSSC(C)(C)[C@H](NC(=O)CCCCCNC(=O)C[C@@H](C(=O)N[C@@H](CC(N)=O)C(=O)N[C@@H](CC(N)=O)C(N)=O)NC(=O)C(C)(C)NC(=O)[C@H](Cc4ccc5ccccc5c4)NC2=O)C(=O)N[C@@H](CC(N)=O)C(=O)N[C@@H]([C@@H](C)O)C(=O)N[C@@H](Cc2c[nH]c4ccccc24)C(=O)N[C@@H](CCC(N)=O)C(=O)N3)cc1 [compound 164] ([Ahx][Pen]NTWQCY(Me)[2Nal][Aib]DNN-NH2; disulfide 2-7; lactam N-11)	23.1	–	–	–
Cc1cccc2c(C[C@@H]3NC(=O)[C@H]([C@@H](C)O)NC(=O)[C@H](CC(N)=O)NC(=O)[C@@H]4CSSC[C@H](NC(=O)[C@H](CCC(N)=O)NC3=O)C(=O)N[C@@H](Cc3ccc(OCCN(C)C)cc3)C(=O)N[C@@H](Cc3ccc5ccccc5c3)C(=O)N[C@@](C)(CCCCN(C)C)C(=O)N[C@H](C(=O)N[C@@H](CC(N)=O)C(=O)N[C@@H](Cc3cccnc3)C(=O)N(C)CC(N)=O)CCCCNC(=O)CCC(=O)N4)c[nH]c12 [compound 153] (CNT[Trp(7-Me)]QCY(Me2NCH2CH2)[2Nal][αMeLys(Me2)]KN[3Pal][Sar]-NH2; disulfide 1-6; linker N-10 via Suc)	–	0.06	0.45	–
COc1ccc(C[C@@H]2NC(=O)[C@H]3NC(=O)[C@H](CCC(N)=O)NC(=O)[C@H](Cc4c[nH]c5ccccc45)NC(=O)[C@H]([C@@H](C)O)NC(=O)[C@H](CC(N)=O)NC(=O)[C@@H](NC(=O)CCCCNC(=O)CC[C@@H](C(=O)N[C@@H](CC(N)=O)C(=O)N[C@@H](CC(N)=O)C(N)=O)NC(=O)C(C)(C)NC(=O)[C@H](Cc4ccc5ccccc5c4)NC2=O)C(C)(C)SSC3(C)C)cc1 [compound 159] ([Ava][Pen]NTWQ[Pen]Y(Me)[2Nal][Aib]ENN-NH2; disulfide 2-7; lactam N-11)	280	–	–	–
CC(=O)NCCCC[C@@H]1NC(=O)[C@H](Cc2c[nH]c3c(C)cccc23)NC(=O)[C@@H](NC(C)=O)CCCCNC(=O)[C@@H]2CCSC[C@H](NC1=O)C(=O)N[C@@H](Cc1ccc(OCCN(C)C)cc1)C(=O)N[C@H](Cc1ccc3ccccc3c1)C(=O)NC1(CCOCC1)C(=O)N[C@H](C(=O)N[C@@H](CC(N)=O)C(=O)N[C@@H](Cc1cccnc1)C(=O)N(C)CC(N)=O)CCCCNC(=O)CCC(=O)N2 [compound 122] (Ac-K[Trp(7-Me)]K(Ac)CY(Me2NCH2CH2)[d2Nal][Thp]KN[3Pal][Sar]-NH2; linker 1-4-8 via X7)	–	0.37	2.3	–
COc1ccc(C[C@@H]2NC(=O)[C@H]3NC(=O)[C@H](CCC(N)=O)NC(=O)[C@H](Cc4c[nH]c5ccccc45)NC(=O)[C@H]([C@@H](C)O)NC(=O)[C@H](CC(N)=O)NC(=O)[C@@H](NC(=O)CCCCCNC(=O)C[C@@H](C(=O)N[C@@H](CC(N)=O)C(=O)N[C@@H](CC(N)=O)C(N)=O)NC(=O)[C@](C)(CC(C)C)NC(=O)[C@H](Cc4ccc5ccccc5c4)NC2=O)C(C)(C)SSC3(C)C)cc1 [compound 162] ([Ahx][Pen]NTWQ[Pen]Y(Me)[2Nal][αMeL]DNN-NH2; disulfide 2-7; lactam N-11)	33.5	–	–	–
CCCCCCCCCCCCCCCC(=O)NCCCC[C@]1(C)NC(=O)[C@H](Cc2ccc3ccccc3c2)NC(=O)[C@H](Cc2ccc(OCCN(C)C)cc2)NC(=O)[C@@H]2CSSC[C@H](NC(=O)CCC(=O)NCCCC[C@@H](C(=O)N[C@@H](CC(N)=O)C(=O)N[C@@H](Cc3cccnc3)C(=O)N(C)CC(N)=O)NC1=O)C(=O)NCCCC[C@H](NC(C)=O)C(=O)N[C@@H](Cc1c[nH]c3c(C)cccc13)C(=O)N[C@@H](CCCCNC(C)=O)C(=O)N2 [compound 101] (Ac-K[Trp(7-Me)]K(Ac)CY(Me2NCH2CH2)[2Nal][αMeK](Palmitoyl)KN[3Pal][Sar]-NH2; linker 1-4-8 via X6)	–	–	3.47	Chemical stability (relative purity loss) Buffer pH 1.2 ([3]; 50 mM HCl pH 1.2 + acetonitrile (1:1)): 12.0%; Chemical stability (relative purity loss) Buffer pH 6.5 ([3]; 50 mM phosphate buffer pH 6.5 + acetonitrile (1:1)): 10.0%; Chemical stability (relative purity loss) Buffer pH 7.4 ([3]; 50 mM phosphate buffer pH 7.4 + acetonitrile (1:1)): 9.0%; solubility at 2 h ([4]; 50 mM HCl buffer, 50 mM HCl pH 1.2, read-out: Solubility Buffer pH 1.2): ≥ 1430 µg/mL; solubility at 2 h ([4]; 50 mM phosphate buffer pH 6.5, read-out: Solubility Buffer pH 6.5): 750 µg/mL (≈ 354 µM); solubility at 2 h ([4]; 50 mM phosphate buffer pH 7.4, read-out: Solubility Buffer pH 7.4): ≥ 870 µg/mL; solubility at 2 h ([4]; 50 mM phosphate buffer pH 9.0, read-out: Solubility Buffer pH 9.0): 810 µg/mL (≈ 382 µM)
COc1ccc(C[C@@H]2NC(=O)[C@H]3NC(=O)[C@H](CCC(N)=O)NC(=O)[C@H](Cc4c[nH]c5ccccc45)NC(=O)[C@H]([C@@H](C)O)NC(=O)[C@H](CC(N)=O)NC(=O)[C@@H](NC(=O)CCCCCNC(=O)CC[C@@H](C(=O)N[C@@H](CC(N)=O)C(=O)N[C@@H](CC(N)=O)C(N)=O)NC(=O)C(C)(C)NC(=O)[C@H](Cc4ccc5ccccc5c4)NC2=O)C(C)(C)SSC3(C)C)cc1 [compound 160] ([Ahx][Pen]NTWQ[Pen]Y(Me)[2Nal][Aib]ENN-NH2; disulfide 2-7; lactam N-11)	72.2	–	–	–
COc1ccc(C[C@@H]2NC(=O)[C@H]3NC(=O)[C@H](CCC(N)=O)NC(=O)[C@H](Cc4c[nH]c5ccccc45)NC(=O)CCCCNC(=O)[C@H](CCC(=O)O[C@@H]3C)NC(=O)CCCCCNC(=O)C[C@@H](C(=O)N[C@@H](CC(N)=O)C(=O)N[C@@H](CC(N)=O)C(N)=O)NC(=O)C(C)(C)NC(=O)[C@H](Cc3ccc4ccccc4c3)NC2=O)cc1 [compound 39] ([Ahx]E[Ava]WQTY(Me)[2Nal][Aib]DNN-NH2; ester 2-6; lactam N-10)	–	26.4	1.1	–
COc1ccc(C[C@@H]2NC(=O)[C@H]3NC(=O)[C@H](CCC(N)=O)NC(=O)[C@H](Cc4c[nH]c5ccccc45)NC(=O)[C@H]([C@@H](C)O)NC(=O)[C@H](CC(N)=O)NC(=O)[C@@H](NC(=O)CCCCCNC(=O)CC[C@@H](C(=O)N[C@@H](CC(N)=O)C(=O)NCC(N)=O)NC(=O)C4(CCOCC4)NC(=O)[C@H](Cc4ccc5ccccc5c4)NC2=O)C(C)(C)SSC3(C)C)cc1 [compound 161] ([Ahx][Pen]NTWQ[Pen]Y(Me)[2Nal][Thp]ENG-NH2; disulfide 2-7 (inferred); lactam N-11 (inferred))	76.6	–	–	–
